Columns and labels:
Assay type in all cases: cell-based, mouse
J16 cells = assay: Inositol phospholipid analysis in LPS-stimulated macrophages
Experimental: Inositol phospholipid analysis. J16 cells, a macrophage cell line immortalized from C57B16 mice, were grown in 10% FCS in IMDM supplemented with 10 μM 2-mercaptoethanol, 150 μM monothioglycolate (MTG) and 1 mM glutamine. 5×10^6 cells were plated the night before in 10 cm tissue culture dishes. The next day, cells were washed three times with phosphate-free medium before being starved in phosphate free RPMI (MP Biomedicals, Irvine, Calif.) supplemented with 10% dialyzed FCS (Invitrogen, Burlington, Ont) and 1% RPMI for 2 hrs. Cells were then labeled with 1.0 mCi of ^32P-labeled orthophosphate (MP Biomedicals, Irvine, Calif.)/ml for 2 hrs at 37° C. Cells were pretreated for 30 mM with AQX-016A, LY294004 or vehicle prior to stimulation with LPS (50 ng/ml) for 15 min. Extraction of inositol phospholipids and HPLC analysis of deacylated lipids were performed as described previously (16). The amount of radioactivity contained in the elution peak for each lipid (two to five fractions) was summed to give the total counts for each lipid, and data were normalized to the first 60 fractions to adjust for fluctuations in total lipid labeling and recovery between samples. Data are expressed as the mean+/− the SEM of three independent replicates for each stimulation condition and the experiment was repeated twice.

[1] = tested on: SHIP1+/+ and SHIP1−/− BMMCs; assay: IgE+antigen-induced calcium flux in BMMCs; conditions: 30 min pretreatment, DNP-HSA stimulation
Experimental: Production of SHIP+/+ and SHIP−/− BMMCs and BMnφs. To obtain BMMCs, bone marrow cells were aspirated from 4 to 8 week old C57B16×129Sv mixed background mice and SHIP1+/+ and SHIP1−/− BMMCs prepared as described previously (17). After 8 weeks in IMDM+15% FCS (StemCell Technologies, Vancouver, Canada)+150 μM MTG+30 ng/ml IL-3 (BMMC medium) more than 99% of the cells were c-kit and FcεR1 positive as determined by flow cytometry with FITC-labeled anti-c-kit (BD Pharmingen, Mississauga, Canada) and FITC-labeled IgE (anti-Epo), respectively. BMmφs from SHIP1+/+ and SHIP1−/− mice were obtained and maintained in IMDM supplemented with 10% FCS, 150 μM MTG, 2% C127 cell conditioned medium as a source of macrophage colony stimulating factor (MCSF) (BMmφ medium).
Stimulation of BMMCs by FcεR1 crosslinking. SHIP1+/+ and SHIP1−/− BMMCs were pre-loaded overnight in BMMC medium lacking IL-3 with 0.1 μg/ml anti-DNP IgE (SPE-7, Sigma, Oakville, Ont). […] Calcium influx was then monitored by spectrofluorometry as described previously (19). […] Total cell lysates were then prepared and analyzed for phospho-PKB, phospho-p38MAPK, phospho-MAPK, Grb-2 (Cell Signalling, Mississauga, Ont) and SHIP1 (18) by immunoblot analysis as described previously (20). […]

[2] = tested on: SHIP1+/+ and SHIP1−/− BMmφs; assay: LPS-stimulated PKB phosphorylation in BMmφs (immunoblot); conditions: 30 min pretreatment, 10 ng/mL LPS 15 min
Experimental: LPS stimulation of BMmφs. For the analysis of LPS-stimulated TNFα production, 2 ×10^5 cells were plated the night before in 24 well plates in BMmφp medium. The next day, the medium was changed and AQX-016A or carrier was added to cells at the indicated concentrations for 30 min prior to the addition of 10 ng/mL LPS. Supernatants were collected after 1 hr for TNFα determination by ELISA (BD Biosciences, Mississauga, ON, Canada). Data are expressed as the mean +/− SEM of triplicates and experiments were repeated 3 times. For analysis of intracellular signaling, 2×10^6 cells were plated the night before in 6 cm tissue culture plates. The next day, the cells were cultured in BMmφp medium without M-CSF for 1 hr at 37° C. and then pretreated with AQX-016A or carrier for 30 min prior to the addition of 10 ng/mL LPS for 15 min. Cells were washed with 4° C. PBS and resuspended in lysis buffer (50 mM Hepes, 2 mM EDTA, 1mM NaVO4 , 100 mM NaF, 50 mM NaPPi and 1%NP4O) supplemented with COMPLETE™ Protease Inhibitor Cocktail (Roche, Montreal, Canada). Lysates were rocked at 4° C. for 30 min and clarified by centrifuging 20 min at 12000×g. Lysates were then made 1× in Laemmli's buffer, boiled 2 min and loaded onto 7.5% SDS polyacrylamide cells. […]

SMILES: Cc1cc(O)c(O)c2c1[C@]1(C)CC[C@H]3C(C)(C)CCC[C@]3(C)[C@H]1C2 [AQX-016A]
- PIP3 levels after LPS stimulation (J16 cells; 30 min pretreatment with 5 mg/mL AQX-016A or 25 μM LY294002, LPS 15 min): abolished this increase
- PI-3,4-P2 levels after LPS stimulation (J16 cells; 30 min pretreatment with AQX-016A or 25 μM LY294002, LPS 15 min): corresponding increase
- IgE+antigen-induced calcium entry, SHIP1+/+ vs SHIP1−/− mast cells [1]: inhibited IgE+antigen-induced calcium entry to a substantially greater degree in SHIP1+/+ than in SHIP1−/−
- LPS-stimulated PKB phosphorylation, SHIP1+/+ vs SHIP1−/− BMmφs [2]: preferentially inhibited, in a dose dependent manner, LPS-stimulated PKB phosphorylation in SHIP1+/+ but not in SHIP1−/−
